Patent publication US20180327367A1, “MACROCYCLIC BROAD SPECTRUM ANTIBIOTICS” (priority 2015, published 2018)
Values after ≈ are worked out from the molar mass of the structure shown. Like-named read-outs stand apart in the source and are kept apart here.

Legend:
[1] = test system: Escherichia coli MC4100 harboring the IMP4213 (E. coli IMP); assay: microbe, parasite or virus in culture; type: cell-based; settings: Escherichia coli, 22 h, read-out: MIC (μg/mL) E. coli IMP, E. coli MC4100 IMP4213, increased outer-membrane permeability; 35° C., 22 hours
Procedure, shortened: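 Top conc 4 μg/mL (protocol 2) or 0.5 μg/mL (protocol 3), 2-fold series, 10 points. Final OD600 0.0005; 22 h, 35° C. IMP4213 = permeable outer membrane.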

[2] = test system: Escherichia coli ATCC 25922; assay: Minimum inhibitory concentration, broth micro-dilution (CLSI), E. coli; type: cell-based; settings: Escherichia coli, ATCC25922, 22 h, 35° C., 22 hours
[3] = test system: Methicillin Resistant Staphylococcus aureus strain USA 300, NRS384; assay: Minimum inhibitory concentration, broth micro-dilution (CLSI), S. aureus; type: cell-based; settings: Staphylococcus aureus, MRSA / NRS 384 / USA300, 22 h, 35° C., 22 hours
Procedure, shortened: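 CLSI broth microdilution in cation-adjusted Mueller Hinton Broth with 0.002% Tween-80; inoculum final OD600 0.0005, 22 hours at 35° C. Ten 2-fold dilutions starting at 4 μg/mL (protocol 2) or 0.5 μg/mL (protocol 3).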

[4] = target: T1, SpsB (Staphylococcus aureus signal peptidase) (Staphylococcus aureus, UniProt P0A070); assay: cell-based; type: biochemical; settings: fluorogenic peptide substrate, kinetic read 30 min
T1 construct: This assay uses a suspension of Staphylococcus aureus cells as a source of SpsB instead of recombinant SpsB protein; endogenous in cells; host or cells: S. aureus, USA300 background, overexpressing SpsB (whole-cell suspension from frozen pellets)
Procedure, shortened: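 Cleavage of an internally quenched (Dabcyl)βAla-KPAKAAE(Edans) peptide, added as 20 μM solution mixed 1:1 with cells, was followed for 30 min at 340/490 nm. SpsB came from a suspension of SpsB-overexpressing USA300 S. aureus in Tween-80-containing PBS buffer. Slopes plotted against 3-fold compound dilutions gave IC50.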

[5] = E. coli ATCC 25922, read-out: MIC (μg/mL) E. coli
[6] = MRSA USA 300 NRS384, read-out: MIC (μg/mL) S. aureus
[7] = SpsB IC50, whole-cell S. aureus (USA300 background, overexpressing SpsB) as SpsB source
[8] = read-out: MIC (μg/mL) E. coli, E. coli ATCC 25922
[9] = read-out: MIC (μg/mL) S. aureus, MRSA USA 300 NRS384

T1 sequence (P0A070 whole entry): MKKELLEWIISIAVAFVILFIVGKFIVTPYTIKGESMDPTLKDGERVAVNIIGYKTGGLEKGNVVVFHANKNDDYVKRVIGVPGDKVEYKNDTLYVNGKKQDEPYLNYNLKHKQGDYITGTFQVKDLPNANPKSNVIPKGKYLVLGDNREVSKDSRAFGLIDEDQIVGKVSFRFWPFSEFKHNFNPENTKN

Structure (SMILES) | MIC [1] [µg/mL] | MIC [2, 5] [µg/mL] | MIC [3, 6] [µg/mL] | IC50 [4, 7] [nM] | MIC [2, 8] [µg/mL] | MIC [3, 9] [µg/mL] | IC50 ([4]; read-out: SpsB IC50, whole-cell S. aureus (USA300 background, overexpressing SpsB) as SpsB source) [nM]
Cc1cc(C2CCC2)ccc1C(=O)N[C@@H](CCN)C(=O)N(C)[C@@H]1C(=O)N[C@@H](C)C(=O)N[C@H](C(=O)NCC#N)Cc2ccc(OCCN)c(c2)-c2cc1ccc2OCCN [Compound 214] | 0.031 (≈ 0.0383 µM) | 3 (≈ 3.7 µM) | 0.25 (≈ 0.309 µM) | 0.98 | – | – | –
CCCCCCCCCCCC(=O)N[C@@H](CCCCN)C(=O)N(C)[C@@H]1C(=O)N[C@@H](C)C(=O)N[C@H](C(=O)NCC#N)Cc2ccc(O)c(c2)-c2cc1ccc2O [Compound 468] | 0.5 (≈ 0.656 µM) | 64 (≈ 84 µM) | 0.19 (≈ 0.249 µM) | 3.4 | – | – | –
CCCCCCCCCCNCCS(=O)(=O)N[C@@H](CCO)C(=O)N(C)[C@@H]1C(=O)N[C@@H](C)C(=O)N[C@H](C(=O)NCC#N)Cc2ccc(OCCN)c(c2)-c2cc1ccc2OCCN [Compound 348] | 1 (≈ 1.13 µM) | – | – | 0.8 | > 64 | 0.055 (≈ 0.0621 µM) | –
CCCCCCc1ccc(C(=O)N2C[C@@H](N)CC2C(=O)N(C)[C@@H]2C(=O)N[C@@H](C)C(=O)N[C@H](C(=O)NCC#N)Cc3ccc(OCCN)c(c3)-c3cc2ccc3OCCN)c(C)c1 (some centres unmarked) [Compound 480] | 0.012 (≈ 0.0141 µM) | 0.5 (≈ 0.587 µM) | 0.19 (≈ 0.223 µM) | 0.92 | – | – | –
CCCCc1ccc(C(=O)N[C@@H](CCCN)C(=O)N(C)[C@@H]2C(=O)N[C@@H](C)C(=O)N[C@H](C(=O)NCC#N)Cc3ccc(OCCN)c(c3)-c3cc2ccc3OCCN)cc1 [Compound 127] | 0.063 (≈ 0.0776 µM) | 4 (≈ 4.93 µM) | 0.5 (≈ 0.616 µM) | 5.9 | – | – | –
CCCCC1CCC(C(=O)N[C@@H](CCN)C(=O)N(C)[C@@H]2C(=O)N[C@@H](C)C(=O)N[C@H](C(=O)NCC#N)Cc3ccc(OCCN)c(c3)-c3cc2ccc3OCCN)CC1 (some centres unmarked) [Compound 123] | 0.0078 (≈ 0.0097 µM) | 0.5 (≈ 0.622 µM) | 0.19 (≈ 0.236 µM) | – | – | – | 1.2
C[C@@H]1NC(=O)[C@@H](N(C)C(=O)[C@H](CO)NC(=O)c2ccc(-c3ccc(Cl)cc3)nc2)c2ccc(OCCN)c(c2)-c2cc(ccc2OCCN)C[C@@H](C(=O)NCC#N)NC1=O [Compound 250] | 0.25 (≈ 0.297 µM) | – | – | 7 | 64 (≈ 76.2 µM) | 1 (≈ 1.19 µM) | –
CCCCCCc1ccc(C(=O)N[C@@H](CCN)C(=O)N(C)[C@@H]2C(=O)N[C@@H](C)C(=O)N[C@H](C(=O)NCC#N)Cc3ccc(OCCN)c(c3)-c3cc2ccc3OCCN)c(C)c1 [Compound 197] | 0.011 (≈ 0.0131 µM) | 0.31 (≈ 0.369 µM) | 0.078 (≈ 0.0929 µM) | < 0.5 | – | – | –
CCCCCCCCCCCCCC(=O)N[C@@H](CC)C(=O)N(C)[C@@H]1C(=O)N[C@@H](C)C(=O)N[C@H](C(=O)NCC#N)Cc2ccc(OCCN)c(c2)-c2cc1ccc2OCCN [Compound 465] | 0.19 (≈ 0.228 µM) | 4 (≈ 4.8 µM) | 0.094 (≈ 0.113 µM) | 1.6 | – | – | –
CCCCCCCCCC(=O)N[C@@H](CCO)C(=O)N[C@@H](CCN)C(=O)N(C)[C@@H]1C(=O)N[C@@H](C)C(=O)N[C@H](C(=O)NCC#N)Cc2ccc(OCCN)c(c2)-c2cc1ccc2OCCN [Compound 378] | 0.25 (≈ 0.28 µM) | – | – | 0.87 | 24 (≈ 26.9 µM) | 0.13 (≈ 0.146 µM) | –
CCCCc1ccc(-c2ccc(C(=O)N[C@@H](CO)C(=O)N(C)[C@@H]3C(=O)N[C@@H](C)C(=O)N[C@H](C(=O)NCC#N)Cc4ccc(OCCN)c(c4)-c4cc3ccc4OCCN)cc2)cc1 [Compound 249] | 0.012 (≈ 0.0139 µM) | 0.69 (≈ 0.801 µM) | 0.13 (≈ 0.151 µM) | 1.2 | – | – | –
Cc1nc(Oc2ccc(CC(C)C)cc2)ncc1C(=O)N[C@@H](CCN)C(=O)N(C)[C@@H]1C(=O)N[C@@H](C)C(=O)N[C@H](C(=O)NCC#N)Cc2ccc(OCCN)c(c2)-c2cc1ccc2OCCN [Compound 304] | 0.016 (≈ 0.0177 µM) | 1 (≈ 1.1 µM) | 0.047 (≈ 0.0519 µM) | 0.68 | – | – | –
CCCCOc1ccc(-c2ncc(C(=O)N[C@@H](CCN)C(=O)N(C)[C@@H]3C(=O)N[C@@H](C)C(=O)N[C@H](C(=O)NCC#N)Cc4ccc(OCCN)c(c4)-c4cc3ccc4OCCN)c(C)n2)cc1 [Compound 164] | 0.0039 (≈ 0.0043 µM) | 0.13 (≈ 0.143 µM) | 0.047 (≈ 0.0519 µM) | 0.62 | – | – | –
Cc1cc(C2CCCCC2)ccc1C(=O)N[C@@H](CCN)C(=O)N(C)[C@@H]1C(=O)N[C@@H](C)C(=O)N[C@H](C(=O)NCC#N)Cc2ccc(OCCN)c(c2)-c2cc1ccc2OCCN [Compound 431] | 0.023 (≈ 0.0274 µM) | 0.88 (≈ 1.05 µM) | 0.063 (≈ 0.0752 µM) | 0.77 | – | – | –
